The values below come from ChEMBL document CHEMBL5579852, “Promising anti-proliferative indolic benzenesulfonamides alter mechanisms with sulfonamide nitrogen substituents” (Eur J Med Chem, 2024).

The subject of series [1] is HeLa. Kind of series: Antiproliferative activity against human HeLa cells assessed as reduction in cell viability incubated for 72 hrs by MTT assay. It counts as functional, cell-based.
The subject of series [2] is MCF7. Description: Antiproliferative activity against human MCF7 cells assessed as reduction in cell viability incubated for 72 hrs by CelltiterGlo luminescent assay. It counts as functional, cell-based. The settings on record: MCF7, 72 h.
Series [3] concerns BT-474. Kind of series: Antiproliferative activity against human BT-474 cells assessed as reduction in cell viability incubated for 72 hrs by CelltiterGlo luminescent assay. The note with it: BT-474, 72 h.
The subject of series [4] is MES-SA. Kind of series: Antiproliferative activity against human MES-SA cells assessed as reduction in cell viability incubated for 72 hrs by CelltiterGlo luminescent assay.
The test system of series [5] is HT-1080. Description: Antiproliferative activity against human HT-1080 cells assessed as reduction in cell viability incubated for 72 hrs by CelltiterGlo luminescent assay. The note with it: HT-1080, 72 h.
The nature of series [6]: Antiproliferative activity against human Melmet 5 cells assessed as reduction in cell viability incubated for 72 hrs by CelltiterGlo luminescent assay. The settings on record: Melmet 5, 72 h.
Series [7] relates to A-375. Description: Antiproliferative activity against human A-375 cells assessed as reduction in cell viability incubated for 72 hrs by CelltiterGlo luminescent assay. The settings on record: A-375, 72 h.
A short description of series [8]: Antiproliferative activity against human WM1366 cells assessed as reduction in cell viability incubated for 72 hrs by CelltiterGlo luminescent assay. The note with it: WM1366, 72 h.
Series [9] relates to CAKI-1. Description: Antiproliferative activity against human CAKI-1 cells assessed as reduction in cell viability incubated for 72 hrs by CelltiterGlo luminescent assay. The note with it: CAKI-1, 72 h.
Series [10] is described as follows: Antiproliferative activity against human Hermes 3C cells assessed as reduction in cell viability incubated for 72 hrs by CelltiterGlo luminescent assay. It counts as toxicity, cell-based.
Series [11] can be described thus: Antiproliferative activity against human HEK293 cells assessed as reduction in cell viability incubated for 72 hrs by CelltiterGlo luminescent assay. In kind it is toxicity, cell-based.
A short description of series [12]: Antiproliferative activity against human RPE-1 cells assessed as reduction in cell viability incubated for 72 hrs by CelltiterGlo luminescent assay. It counts as toxicity, cell-based. The settings on record: RPE-1 cells (TERT-RPE1).
The test system of series [13] is HeLa. Kind of series: Antiproliferative activity against human HeLa cells assessed as reduction in cell viability incubated for 72 hrs by CelltiterGlo luminescent assay. In kind it is functional, cell-based.
Series [14] relates to HeLa. Kind of series: Antiproliferative activity against human HeLa cells assessed as inhibition of cell growth incubated for 72 hrs in absence of verapamil by MTT assay. It counts as functional, cell-based.
Series [15] relates to HeLa. Description: Antiproliferative activity against human HeLa cells assessed as inhibition of cell growth incubated for 72 hrs in presence of verapamil by MTT assay. In kind it is functional, cell-based.
Series [16] has as its system MDA-MB-468. Description: cells. The settings on record: Homo sapiens, MDA-MB-468, 72 h.
Description: Antiproliferative activity against human MDA-MB-468 cells assessed as reduction in cell viability incubated for 72 hrs by CelltiterGlo luminescent assay
Series [17] is described as follows: cells. The settings on record: Homo sapiens, MDA-MB-468, 72 h.

For `COc1cc(S(=O)(=O)N(CC#N)c2ccc3c(c2)c(C=O)cn3C)cc(OC)c1OC`, the IC50 in series [1] amounted to 22.7 nM; in series [2], 15.3 nM; in series [3], 66.4 nM; in [4] it was 32.5 nM; in [5], 14 nM; in series [6], 12.5 nM. Moreover, the IC50 turned out to be 49.8 nM in series [7]; 31.4 nM in [8]; 66.2 nM in series [9]; 18.4 nM in [13]; 57.4 nM in series [14]; 52.4 nM in series [15]. Also, the IC50 in [16] turned out to be 15.2 nM; in series [17], 14.7 nM. Besides, the IC50 at 72 h is 81.3 nM in series [10], 70.9 nM in series [11] and 41.3 nM in series [12].
For `COc1cc(S(=O)(=O)N(CCCCCCN2CCOCC2)c2ccc3c(ccn3C)c2)cc(OC)c1OC`, the IC50 in [1] is more than 1000 nM.
As for `CCOC(=O)CCCN(c1ccc2c(ccn2C)c1)S(=O)(=O)c1cc(OC)c(OC)c(OC)c1`, the IC50 in [1] is more than 1000 nM.
`COc1cc(S(=O)(=O)N(Cc2ccc(N)cc2)c2ccc3c(ccn3C)c2)cc(OC)c1OC`: in series [1], the IC50 worked out at 464 nM.
For the molecule `CC(=O)O[C@@]12CO[C@@H]1C[C@H](O)[C@@]1(C)C(=O)[C@H](O)C3=C(C)[C@@H](OC(=O)[C@H](O)[C@@H](NC(=O)OC(C)(C)C)c4ccccc4)C[C@@](O)([C@@H](OC(=O)c4ccccc4)[C@H]21)C3(C)C` [DOCETAXEL ANHYDROUS], the IC50 in series [2] amounted to 3.9 nM; in [3], 21.4 nM; in [4], 3.4 nM; in [5], 1.5 nM; in [6], 9.5 nM; in series [7], 4.5 nM. The IC50 is 8.5 nM in [8]; 2.7 nM in [9]; 1 nM in series [13]; 3.1 nM in series [16]; 8.3 nM in series [17]. Moreover, the values for the IC50 at 72 h in [10], in series [11] and in [12] were 1.7 nM, 7.5 nM and 8.2 nM, respectively.
For `COc1cc(S(=O)(=O)N(CCCC(=O)O)c2ccc3c(ccn3C)c2)cc(OC)c1OC`, in [1], the IC50 was more than 1000 nM.
Turning to `COc1cc(S(=O)(=O)Nc2ccc3c(c2)C=CC3CC#N)cc(OC)c1OC` (stereo not given), the concentration for half-maximal inhibition (IC50) in series [1] is 2560 nM.
In the case of `COc1cc(S(=O)(=O)N(CC(N)=O)c2ccc3c(ccn3C)c2)cc(OC)c1OC`, the IC50 in series [1] was determined as 275 nM.
On to `COc1cc(S(=O)(=O)N(CCN2CCOCC2)c2ccc3c(ccn3C)c2)cc(OC)c1OC`, for which the IC50 in series [1] is more than 1000 nM.
As to `COc1cc(S(=O)(=O)N(CCCCC(=O)O)c2ccc3c(ccn3C)c2)cc(OC)c1OC`, the IC50 in series [1] is more than 1000 nM.
In the case of `COc1cc(S(=O)(=O)N(Cc2ccc([N+](=O)[O-])cc2)c2ccc3c(ccn3C)c2)cc(OC)c1OC`, the IC50 in series [1] is more than 1000 nM.
On to `COc1cc(S(=O)(=O)N(CCCCN2CCOCC2)c2ccc3c(ccn3C)c2)cc(OC)c1OC`, for which, in series [1], the IC50 was more than 1000 nM.
`COc1cc(S(=O)(=O)N(CCCN2CCOCC2)c2ccc3c(ccn3C)c2)cc(OC)c1OC`: in series [1], the IC50 is more than 1000 nM.
For the molecule `CCOC(=O)CN(c1ccc2c(ccn2C)c1)S(=O)(=O)c1cc(OC)c(OC)c(OC)c1`, in series [1], the IC50 is more than 1000 nM.
`COc1cc2c(c(OC)c1OC)-c1ccc(OC)c(=O)cc1[C@@H](NC(C)=O)CC2` [COLCHICINE]: the values for the IC50 in series [14] and in series [15] were 16.7 nM and 9.3 nM, respectively.
`C#CCN(c1ccc2c(ccn2C)c1)S(=O)(=O)c1cc(OC)c(OC)c(OC)c1`: the IC50 in series [1] was 79.8 nM.
As for `COc1cc(S(=O)(=O)N(Cc2cccc([N+](=O)[O-])c2)c2ccc3c(ccn3C)c2)cc(OC)c1OC`, in series [1], the IC50 is more than 1000 nM.
As to `CC(=O)O[C@H]1C(=O)[C@@]2(C)[C@H]([C@H](OC(=O)c3ccccc3)[C@]3(O)C[C@H](OC(=O)[C@H](O)[C@@H](NC(=O)c4ccccc4)c4ccccc4)C(C)=C1C3(C)C)[C@]1(OC(C)=O)CO[C@@H]1C[C@@H]2O` [PACLITAXEL], the IC50 at 72 h in series [10] was determined as 1 nM; in series [11], 26.8 nM.
As for `CCN(c1ccc2c(ccn2C)c1)S(=O)(=O)c1cc(OC)c(OC)c(OC)c1`, the IC50 in series [1] is 109 nM; in series [2], 347 nM; in series [3], 792 nM; in [4], 148 nM; in series [5], 104 nM; in series [6], 96.2 nM. Also, the IC50 came out at 363 nM in series [7]; 517 nM in [8]; 158 nM in series [9]; 108 nM in series [13]; 123 nM in series [14]; 105 nM in series [15]. Also, the IC50 came to 161 nM in series [16] and 145 nM in series [17]. Also, the figures for the IC50 at 72 h in series [10], in series [11] and in series [12] were 965 nM, 323 nM and 335 nM, respectively.
Consider `COc1cc(S(=O)(=O)N(CCCCBr)c2ccc3c(ccn3C)c2)cc(OC)c1OC`, for which, in [1], the IC50 is more than 1000 nM.
Turning to `COc1cc(S(=O)(=O)N(CC#N)c2ccc3c(c2)C=CC3CC#N)cc(OC)c1OC` (stereo not given), the IC50 in [1] was 974 nM.
As to `COc1cc(S(=O)(=O)N(C)c2ccc3c(c2)C=CC3CC#N)cc(OC)c1OC` (stereo not given), the IC50 in series [1] amounted to 114 nM.
On to `COc1cc(S(=O)(=O)N(CC#N)c2ccc3c(c2)c(C(N)=O)cn3C)cc(OC)c1OC`, for which the IC50 in series [1] stood at 50.9 nM; in [2] it was 48.6 nM; in [3], 40.8 nM; in series [4], 14.2 nM; in series [5] it was 16.6 nM; in series [6], 16.2 nM. The IC50 in series [7] amounted to 48.3 nM; in series [8], 36 nM; in [9], 98.3 nM; in [13], 68.8 nM; in [14], 50.9 nM; in series [15], 26.4 nM. The IC50 in [16] is 20.3 nM; in series [17], 72.9 nM. The IC50 at 72 h was 88.5 nM in [10], 282 nM in series [11] and 33 nM in [12].
On to `COc1cc(S(=O)(=O)N(Cc2cccc(N)c2)c2ccc3c(ccn3C)c2)cc(OC)c1OC`, for which the IC50 in [1] was more than 1000 nM.
On to `COc1cc(S(=O)(=O)N(C)c2ccc3c(c2)c(C=O)cn3C)cc(OC)c1OC`, for which the half-inhibitory concentration (IC50) in series [1] is 16.5 nM; in series [2], 9.3 nM; in series [3], 10.6 nM; in series [4], 17.9 nM; in [5], 8.1 nM; in series [6], 3.9 nM. In addition, the IC50 in series [7] was determined as 8.7 nM; in series [8], 11.6 nM; in [9], 12.9 nM; in series [13] it was 5.3 nM; in series [14], 18.4 nM; in [15], 14.6 nM. For the same molecule, the IC50 in series [16] came to 17.2 nM; in series [17] it was 32.9 nM. The concentration for half-maximal inhibition (IC50) at 72 h turned out to be 52.8 nM in [10], 50.2 nM in [11] and 12 nM in series [12].
Turning to `CCOC(=O)CCCCN(c1ccc2c(ccn2C)c1)S(=O)(=O)c1cc(OC)c(OC)c(OC)c1`, in series [1], the IC50 was more than 1000 nM.
`COc1cc(S(=O)(=O)N(CC#N)c2ccc3c(c2)c(C#N)cn3C)cc(OC)c1OC`: the IC50 in series [1] was 24.4 nM; in series [2], 60.8 nM; in series [3], 71.1 nM; in series [4], 80.3 nM; in [5], 65.8 nM; in series [6], 32.3 nM. Besides, the IC50 came out at 86.8 nM in series [7]; 81.3 nM in series [8]; 29.5 nM in series [9]; 77.3 nM in [13]; 34.5 nM in [14]; 27.2 nM in series [15]. Besides, the IC50 in series [16] came out at 31.6 nM; in series [17], 34.4 nM. For the same molecule, the IC50 at 72 h in series [10] was determined as 70.5 nM; in series [11], 17.7 nM; in series [12], 76.3 nM.
Consider `COc1cc(S(=O)(=O)N(CCCCCCBr)c2ccc3c(ccn3C)c2)cc(OC)c1OC`, for which the IC50 in [1] is more than 1000 nM.
Still for that read-out and setting: then `COc1cc(S(=O)(=O)N(C)c2ccc3c(c2)c(C(=O)O)cn3C)cc(OC)c1OC`, with more than 1000 nM; and `COc1cc(S(=O)(=O)N(CCCBr)c2ccc3c(ccn3C)c2)cc(OC)c1OC`, with more than 1000 nM.
As for `CCC1=C[C@@H]2CN(C1)Cc1c([nH]c3ccccc13)[C@@](C(=O)OC)(c1cc3c(cc1OC)N(C)[C@H]1[C@@](O)(C(=O)OC)[C@H](OC(C)=O)[C@]4(CC)C=CCN5CC[C@]31[C@@H]54)C2` [VINORELBINE], the IC50 in series [2] was found to be 0.8 nM; in series [3] it was 0.3 nM; in series [4], 0.4 nM; in series [5], 0.1 nM; in [6], 0.1 nM; in series [7] it was 0.6 nM. The IC50 in series [8] came to 0.9 nM; in series [9], 0.3 nM; in series [13], 0.3 nM; in series [16], 0.1 nM. In addition, the IC50 at 72 h was 0.5 nM in series [10], 15.9 nM in [11] and 9.3 nM in series [12].
Take `COc1cc(S(=O)(=O)N(Cc2ccccc2)c2ccc3c(ccn3C)c2)cc(OC)c1OC`: the IC50 in series [1] is more than 1000 nM.
For `COc1cc(S(=O)(=O)N(CCCCCBr)c2ccc3c(ccn3C)c2)cc(OC)c1OC`, in series [1], the IC50 was more than 1000 nM.
